Earlier results in patent US20200315976A1, “Encapsulation Methods and Compositions” (Prodo Laboratories, Inc., priority 2017, published 2020).

System: islets

With CCOC(=O)c1ccccc1-c1c2cc(Br)c(=O)c(Br)c-2oc2c(Br)c([O-])c(Br)cc12.[K+] [Ethyl eosin, ethyl eosin] as the compound, how does the “effect on islets during conformal encapsulation” value read?
The value was “islet death”.
